Holding throughout (assay type): cell-based
Assay [1] concerns NCI-H82 (human small cell lung cancer cell). The assay is described as follows: CellTiter-Glo cell viability, NCI-H82. Particulars: sensitive group, 3-4 days of culture, n=3. The method, then: (§1) The inhibitory effect of pixantrone maleate on various tumor cell lines was detected using cell activity detection reagent. • Cell viability was detected using the Promega CellTiter-Glo kit, cell viability was determined by directly measuring intracellular ATP content. In the experiment, the IC50 value of pixantrone maleate on various tumor cell lines was determined. Each tumor cell was cultured separately in relevant medium (+p/s), and was incubated for 3 h, then the gradient diluted pixantrone maleate was added. After 3-4 days of culture, the relevant IC50 (50% inhibiting concentration) was measured (n=3). The name, source and culture conditions of each tumor cell line were as follows: Cell line NCI-H82 (ATCC, No. HTB-175) was cultured in 10% fetal bovine serum-containing RPMI1640 medium (+P/S).
On the technique in general: In ATP-based viability assays light output follows the ATP content of the culture.

Assay [2] concerns G-401 (human renal carcinoma Wilms cell). The assay can be described thus: CellTiter-Glo cell viability, G-401. The conditions noted are these: sensitive group, 3-4 days of culture, n=3. The method, then: as §1, with “G-401” for “NCI-H82”, “CRL-1441)” for “HTB-175)”, “McCoy's 5a” for “RPMI1640”
Assay [3] relates to MDA-MB-453 (breast cancer cell). The assay can be described thus: CellTiter-Glo cell viability, MDA-MB-453. Particulars: Homo sapiens, sensitive group, 3-4 days of culture, n=3. The method, then: as §1, with “MDA-MB-453” for “NCI-H82”, “HTB-131)” for “HTB-175)”, “Leibovitz's L-15” for “RPMI1640”
Assay [4] concerns SW48 (human colon adenocarcinoma cell). The assay is described as follows: CellTiter-Glo cell viability, SW48. Particulars: sensitive group, 3-4 days of culture, n=3. The method, then:
as §1, with “SW48” for “NCI-H82”, “CCL-231)” for “HTB-175)”, “Leibovitz's L-15” for “RPMI1640”

The test system of assay [5] is WSU-DLCL2 (human diffuse large B-cell lymphoma). The assay is described as follows: CellTiter-Glo cell viability, WSU-DLCL2. Particulars: WSUDLCL2, sensitive group, 3-4 days of culture, n=3. The method, then:
as §1, with “WSU-DLCL2 (DSMZ,” for “NCI-H82 (ATCC,”, “ACC-575)” for “HTB-175)”

In assay [6] the test system is CFPAC-1 (human pancreatic cancer cell). The assay is described as follows: CellTiter-Glo cell viability, CFPAC-1. The conditions noted are these: insensitive group, 3-4 days of culture, n=3. The method, then: as §1, with “CFPAC-1” for “NCI-H82”, “CRL-1918)” for “HTB-175)”, “IMDM” for “RPMI1640”
In assay [7] the test system is 786-O (clear cell renal cell adenocarcinoma cell). The assay can be described thus: CellTiter-Glo cell viability, 786-O. Particulars: Homo sapiens, 786-0, insensitive group, 3-4 days of culture, n=3. The method, then: as §1, with “786-0” for “NCI-H82”, “CRL-1932)” for “HTB-175)”
Assay [8] concerns GB-1 (human glioblastoma cell). The assay can be described thus: CellTiter-Glo cell viability, GB-1. Particulars: insensitive group, 3-4 days of culture, n=3. The method, then: as §1, with “GB-1 (JCRB,” for “NCI-H82 (ATCC,”, “IFO50489)” for “HTB-175)”, “DMEM” for “RPMI1640”
Assay [9] has as its system SF-126 (human glioblastoma multiforme cell). The assay can be described thus: CellTiter-Glo cell viability, SF-126. The conditions noted are these: insensitive group, 3-4 days of culture, n=3. The method, then:
as §1, with “SF126 (JCRB,” for “NCI-H82 (ATCC,”, “IFO50286)” for “HTB-175)”, “EMEM” for “RPMI1640”

Another assay concerns NCI-H82 (Con) cell. The assay can be described thus: CellTiter-Glo cell viability, control NCI-H82 (Con) cell. The conditions noted are these: Homo sapiens; control NCI-H82 cell transfected with empty virus vector; n=3. From the text: (§2) The NNMT protein-overexpressing NCI-H82 cell (NCI-H82 (ov-NNMT)) was obtained by inserting the NNMT gene into NCI-H82 cell using a viral vector. The control NCI-H82 cell (NCI-H82 (Con)) was obtained by transfecting NCI-H82 cell with empty virus vector without carrying NNMT gene. The expressing level of NNMT protein in control NCI-H82 cell (NCI-H82 (Con)) and NNMT protein-overexpressing NCI-H82 cell (NCI-H82 (ov-NNMT)) was detected using Western Blot assay (as shown in FIG. 7), it could be seen from FIG. 7 that the NNMT protein in NCI-H82 (ov-NNMT) cell was overexpressed compared with the expression level of NNMT protein in NCI-H82(Con) cell. The IC50 value of pixantrone maleate on control NCI-H82 cell (NCI-H82 (Con)) and NNMT protein-overexpressing NCI-H82 cell (NCI-H82 (ov-NNMT)) was determined using Promega CellTiter-Glo kit which detected cell viability by directly measuring intracellular ATP content (n=3), the experiment result was shown in Table 4 below: […]

In a further assay the test system is NCI-H82 (ov-NNMT) cell. The assay can be described thus: CellTiter-Glo cell viability, NNMT protein-overexpressing NCI-H82 (ov-NNMT) cell. The conditions noted are these: Homo sapiens, n=3.
From the text: as §2

Structures can show the parent of a compound that is named as a salt.

As usually defined, the IC50 is the concentration at which inhibition is half-maximal. A lower IC50 goes with inhibition by little substance.

For `NCCNc1ccc(NCCN)c2c1C(=O)c1ccncc1C2=O` [Pixantrone maleate, pixantrone maleate], the IC50 in [1] came to 740 nM; in [2], 290 nM; in [3], 860 nM; in [4] it was 20 nM; in assay [5], 20 nM; in assay [6], 11700 nM. Also, the half-inhibitory concentration (IC50) in [7] turned out to be 21600 nM; in assay [8] it was 6560 nM; in assay [9] it was 5420 nM; in the assay with NCI-H82 (Con) cell it was 690 nM; in the assay on NCI-H82 (ov-NNMT) cell, 1930 nM.
